{
  "source": "patent US20060058504A1",
  "about": "“Peptides capable of inducing attraction to the axonal growth and their use for treating neurodegenerative diseases” (Centre National de la Recherche Scientific (CNRS), priority 2002, published 2006)",
  "molecules": {"B1": {"name": "H210Q: L1Fc chimera with missense mutation H210Q in Ig domain 2 (protein)", "chain": "IQIPEEYEGHHVMEPPVITEQSPRRLVVFPTDDISLKCEASGKPEVQFRWTRDGVHFKPKEELGVTVYQSPHSGSFTITGNNSNFAQRFQGIYRCFASNKLGTAMSHEIRLMAEGAPKWPKETVKPVEVEEGESVVLPCNPPPSAEPLRIYWMNSKILHIKQDERVTMGQNGNLYFANVLTSDNHSDYICQAHFPGTRTIIQKEPIDLRVKATNSMIDRKPRLLFPTNSSSHLVALQGQPLVLECIAEGFPTPTIKWLRPSGPMPADRVTYQNHNKTLQLLKVGEEDDGEYRCLAENSLGSARHAYYVTVEAAPYWLHKPQSHLYGPGETARLDCQVQGRPQPEVTWRINGIPVEELAKDQKYRIQRGALILSNVQPSDTMVTQCEARNRHGLLLANAYIYVVQLPAKILTADNQTYMAVQGSTAYLLCKAFGAPVPSVQWLDEDGTTVLQDERFFPYANGTLGIRDLQANDTGRYFCLAANDQNNVTIMANLKVKDATQITQGPRSTIEKKGSRVTFTCQASFDPSLQPSITWRGDGRDLQELGDSDKYFIEDGRLVIHSLDYSDQGNYSCVASTELDVVESRAQLLVVGSPGPVPRLVLSDLHLLTQSQVRVSWSPAEDHNAPIEKYDIEFEDKEMAPEKWYSLGKVPGNQTSTTLKLSPYVHYTFRVTAINKYGPGEPSPVSETVVTPEAAPEKNPVDVKGEGNETTNMVITWKPLRWMDWNAPQVQYRVQWRPQGTRGPWQEQIVSDPFLVVSNTSTFVPYEIKVQAVNSQGKGPEPQVTIGYSGEDYPQAIPELEGIEILNSSAVLVKWRPVDLAQVKGHLRGYNVTYWREGSQRKHSKRHIHKDHVVVPANTTSVILSGLRPYSSYHLEVQAFNGRGSGPASEFTFSTPEGVPGHPEALHLECQSNTSLLLRWQPPLSHNGVLTGYVLSYHPLDEGGKGQLSFNLRDPELRTHNLTDLSPHLRYRFQLQATTKEGPGEAIVREGGTMALSGISDFGNISATAGENYSVVSWVPKEGQCNFRFHILFKALGEEKGGASLSPQYVSYNQSSYTQWDLQPDTDYEIHLFKERMFRHQMAVKTNGTGRVRLPPAGFATE", "modifications": "left off: a dimerising Fc or GST"}, "B2": {"name": "E309K: L1Fc chimera with missense mutation E309K in Ig domain 3 (protein)", "chain": "B1 chain with Q191H, E290K", "modifications": "left off: a dimerising Fc or GST"}, "B3": {"name": "A426D: L1Fc chimera with missense mutation A426D in Ig domain 5 (protein)", "chain": "B1 chain with Q191H, A407D", "modifications": "left off: a dimerising Fc or GST"}},
  "key": {"[1]": {"system": "cortical axons repelled by Sema3A secreted from the ventral spinal cord", "assay": "Co-culture of cortical slices and ventral spinal cord explants (axon guidance response to Sema3A)", "assay_type": "cell-based, mice", "conditions": "for Axonal length, Away / Number of axons, Away / Axonal length, Towards / Number of axons, Towards: Ctx/vSC co-culture, L1Fc 3 μg/ml, ODQ 10^−5 M; for Axonal length, Away / Number of axons, Away: growth away from spinal cord explant; for Axonal length, Towards / Number of axons, Towards: growth towards spinal cord explant; for effect of inhibitor on L1Fc-induced switch of Sema3A repulsion to attraction: inhibitor combined with L1Fc 3 μg/ml; for guidance index: qualitative index from −2 (repulsion) to +2 (attraction), L1Fc chimeras 3 μg/ml, ODQ 10^−5M; for conversion of Sema3A-induced chemorepulsion into attraction by peptide: peptide at 10^−6M; for switching of Sema3A repulsion to attraction by L1Fc chimera: chimera 3 μg/ml in culture medium", "experimental": "Blocks of cortex were dissected from P0 (postnatal day 0) to P2 mice and cut into 250 μm thick slices with a McIlwain tissue chopper. The ventral part of the cervical spinal cord was dissected and cut into 250 μm thick slices. Co-culture of cortical slices and ventral spinal cord explants were performed in a three-dimensional plasma clot, as described previously (Castellani et al., 2000). Cortical slices were oriented in the plasma clot as indicated in FIG. 1B to give to axons equivalent chances to be deflected away or towards the spinal cord explant. Purified wild-type or mutant L1Fc chimeras were added to the culture medium (3 μg/ml). Inhibitors of the guanylyl cyclase (ODQ, 10^−5 M, Sigma) and NOS (7NI, […], Sigma) were added to the culture medium, either alone or with wild-type L1Fc (3 μg/ml). After one or two days in vitro (DIV), the cultures were fixed with 4% paraformaldehyde (PFA) and analyzed by phase contrast microscopy (Axiovert 35-M, Zeiss). A qualitative guidance index was attributed to the co-cultures, to assess the degree of repulsive (negative values) or attractive (positive values) effects (Castellani et al., 2000). The index ranged from −2 (when most fibers grew away from the spinal cord explant) to +2 (when most fibers grew towards the explant), with intermediate situations (index of −1 and +1 for moderate guidance effects). An index of zero was attributed to the cultures showing no preferential growth. Quantitative analysis of axon length and number of axons growing from cortical slices was performed as described previously (Castellani et al., 2000). A proximal and a distal region, each of them covering a 600 μm-piece of cortical tissue were determined for each culture. All fibers extending from these two regions were counted and the length of the three longest fibers was measured, using computer analysis software (Visiolab 2000, Biocom). Immunofluorescence labeling of axons was performed using the mouse anti-phosphorylated neurofilament antibody SMI31 (Stemberger and Meyer Inc.), and Texas red-conjugated secondary anti-mouse antibody (see result obtained for number of axons and axonal length in the following tables 1 and 2).\nIt has been previously developed an assay system using explants of ventral spinal cord co-cultured with cortical axons in order to determine the factors involved in axonal repulsion and attraction (Castellani et al., 2000). Using this system we have shown that Sema3A secreted from the ventral spinal cord repels cortical axons. In the presence of soluble wild-type L1Fc chimeric protein however, repulsion is switched to attraction (Castellani et al., […]). In the present study, we aimed to identify the L1 interactions underlying the switching process. As Ig domains have been implicated in binding of Ig CAMs to many of their ligands (Brümmendorf and Rathjen, 1996) we hypothesized that they would also be required for L1 Fc-mediated switching. […] L1 Fc chimeras containing pathological missense mutations affecting specific Ig domains (De Angelis et al., 1999 and FIGS. 1A, 1B) were assessed for their ability to reverse Sema3A repulsion to attraction."}, "[2]": {"system": "NP-1", "assay": "Binding of L1Fc chimeras to NP-1 expressing COS7 cells (immunofluorescence)", "experimental": "(§1) The mutant L1Fc chimeras were produced and purified as described previously (De Angelis et al., 1999). Briefly, COS-7 cells were transiently transfected with 10 μg DNA per 150 mm culture dish, the soluble Fc chimeric protein was allowed to accumulate in the media for 6 days and was recovered and purified by protein A-Sepharose affinity chromatography. In the binding experiments, L1Fcs were cross-linked to anti-human Fc antibodies (50 μg/ml, Jackson Immunoresearch) for 1 hr at 37° C. Binding detection to NP-1 requested concentrations of L1Fcs 10 folds higher than L1. Antibody conjugated L1-Fc protein was then incubated with monolayers of COS7 cells transiently transfected with expression vectors encoding full length human L1 or myc-tagged NP-1 where the cytoplasmic domain is deleted (gift of J. Raper, 2000 and Renzi et al., 1999). Following incubation, the cells were fixed with 4% PFA, and processed for double-immunofluorescence detection. NP-1 was detected using a mouse anti-c myc antibody (clone 9E10, Sigma) and L1 using a rat monoclonal anti-L1 antibody. Secondary antibody anti-c-myc (Texas-red conjugated anti-mouse antibodies) was used to detect NP-1, anti-L1 (Texas red conjugated anti-rat antibodies) to detect L1, and anti-Fc (FITC conjugated anti-rabbit antibodies) to detect bound L1Fc chimeras. After secondary antibody incubation, the cells were washed with PBS and mounted in Mowiol (Calbiochem).\nNext, we examined the ability of the mutant L1 Fc chimeras to bind NP-1. COS7 cells were transfected with a vector encoding the extracellular and transmembrane domains of NP-1 fused to a myc tag (ANP-1, Renzi et al., J. Neurosci., 15:7870-7880, 1999), and incubated with the mutant L1Fc chimeras. Binding was detected by immunofluorescence. […] Binding of L120V, G121S and A426D L1Fcs to NP-1 is illustrated in FIG. 3."}, "[3]": {"biological_target": "T1, full length human L1 (Homo sapiens, UniProt P32004)", "T1 construct": "transiently transfected with expression vectors encoding full length human L1; expressed in transfected cells; host or cells: COS7", "T1 sequence (P32004 20-1257)": "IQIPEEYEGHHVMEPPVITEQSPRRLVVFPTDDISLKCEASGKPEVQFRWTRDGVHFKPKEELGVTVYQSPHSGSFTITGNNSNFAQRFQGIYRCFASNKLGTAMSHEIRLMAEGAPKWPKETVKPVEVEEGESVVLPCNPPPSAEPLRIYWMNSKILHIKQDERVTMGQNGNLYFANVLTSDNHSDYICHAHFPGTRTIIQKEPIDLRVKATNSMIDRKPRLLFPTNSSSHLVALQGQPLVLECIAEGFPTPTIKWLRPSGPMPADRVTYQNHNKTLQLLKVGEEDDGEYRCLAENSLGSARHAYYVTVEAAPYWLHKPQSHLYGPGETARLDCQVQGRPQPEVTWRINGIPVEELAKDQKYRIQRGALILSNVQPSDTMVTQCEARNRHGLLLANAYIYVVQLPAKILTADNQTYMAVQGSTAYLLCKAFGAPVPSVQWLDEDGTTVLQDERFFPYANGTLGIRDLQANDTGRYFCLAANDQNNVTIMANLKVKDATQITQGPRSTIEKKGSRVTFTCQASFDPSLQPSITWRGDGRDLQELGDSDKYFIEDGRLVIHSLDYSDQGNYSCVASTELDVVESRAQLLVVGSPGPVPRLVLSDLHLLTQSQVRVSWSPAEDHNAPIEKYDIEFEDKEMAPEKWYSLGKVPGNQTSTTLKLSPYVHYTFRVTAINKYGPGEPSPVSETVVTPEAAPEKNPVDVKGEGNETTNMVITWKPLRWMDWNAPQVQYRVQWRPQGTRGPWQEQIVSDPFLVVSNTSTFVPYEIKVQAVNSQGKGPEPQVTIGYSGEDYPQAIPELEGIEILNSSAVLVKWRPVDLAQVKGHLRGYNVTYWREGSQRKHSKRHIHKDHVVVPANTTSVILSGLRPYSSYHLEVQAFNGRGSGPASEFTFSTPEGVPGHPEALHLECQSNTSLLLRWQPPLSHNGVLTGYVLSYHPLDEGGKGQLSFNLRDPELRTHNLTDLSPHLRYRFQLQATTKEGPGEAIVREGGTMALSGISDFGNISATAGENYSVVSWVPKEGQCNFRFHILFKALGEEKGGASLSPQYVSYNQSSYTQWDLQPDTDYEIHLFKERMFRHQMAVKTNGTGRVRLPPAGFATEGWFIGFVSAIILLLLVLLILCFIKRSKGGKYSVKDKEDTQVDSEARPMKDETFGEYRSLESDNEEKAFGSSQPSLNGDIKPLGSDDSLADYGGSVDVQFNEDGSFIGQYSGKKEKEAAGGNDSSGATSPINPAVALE", "assay": "Binding of L1Fc chimeras to COS cells expressing wild-type L1 (immunofluorescence)", "experimental": "as §1\nThus, Ig CAMs F3 and TAG-1 (the rodent homologue of axonin-1) ate unlikely to be axonal receptors for L1Fc in the reversion process. […] In the present study however, mutated L1Fc proteins were required to interact with wild-type L1 expressed on growth cones. To formally exclude a role for homophilic binding of L1 in the initiation of the reversion process, it was therefore necessary to examine whether homophilic binding of the mutated L1Fc chimeras to wild-type L1 was also disrupted. Mutated L1Fcs were therefore incubated with COS7 cells transfected with full-length wild-type L1 cDNA and binding was assessed by immunofluorescence. In parallel, homophilic binding of mutant/mutant and mutant/wild-type L1Fcs was compared in a two-color FACS aggregation assay, allowing a quantitative assessment to be made (see Methods). […] Similarly, in the two color FACS assay homophilic binding was restored to 74.4% and 90.5% of wild-type levels for A426D and H210Q respectively (FIG. 2B). […] This mutation however still promoted the L1 Fc induced switching of Sema3A repulsion to attraction in the co-culture assay. Thus, the ability of L1Fc to switch Sema3A repulsion is not dependent on homophilic binding. Consequently, the trans interaction of L1Fc with L1 in the receptor complex is not required for the change in growth cone responsiveness to Sema3A."}, "[4]": {"system": "L1", "conditions": "mutant bound to itself; cited from earlier work"}, "[5]": {"system": "F3, axonin-1 and TAX-1", "conditions": "F3, axonin-1 (and TAX-1 where stated); cited from earlier work"}},
  "note": "Numbering of substitutions follows the chain as printed. In names and notes the source's numbering stands. Entries after “also recorded” stand apart in the source; their conditions may differ.",
  "data": [
    {"molecule": "O=[N+]([O-])c1cccc2cn[nH]c12", "note": "[7NI, 7 nitroindazole, reference compound]", "values": [
      {"measurement": "Axonal length, Away", "setting": "[1]", "result": "407.6 +/− 5"},
      {"measurement": "Number of axons, Away", "setting": "[1]", "result": "25.6 +/− 1.6"},
      {"measurement": "Axonal length, Towards", "setting": "[1]", "result": "203.1 +/− 6, *"},
      {"measurement": "Number of axons, Towards", "setting": "[1]", "result": "5 +/− 0.6, *"},
      {"measurement": "effect of inhibitor on L1Fc-induced switch of Sema3A repulsion to attraction", "setting": "[1]", "result": "did block L1Fc-mediated chemoattraction; also recorded: prevented the L1 Fc induced switching of Sema3A from repulsion to attraction"},
      {"measurement": "guidance index", "setting": "[1]", "result": "−1.6"}
    ]},
    {"molecule": "O=c1onc2cnc3ccccc3n12", "note": "[ODQ, 1H-(1,2,4)oxadiazolo(4,3-a)quinoxalin-1-one, reference compound]", "values": [
      {"measurement": "Axonal length, Away", "setting": "[1]", "result": "384.1 +/− 7"},
      {"measurement": "Number of axons, Away", "setting": "[1]", "result": "25.2 +/− 1.8"},
      {"measurement": "Axonal length, Towards", "setting": "[1]", "result": "206.9 +/− 8, *"},
      {"measurement": "Number of axons, Towards", "setting": "[1]", "result": "5.1 +/− 0.5, *^"},
      {"measurement": "effect of inhibitor on L1Fc-induced switch of Sema3A repulsion to attraction", "setting": "[1]", "result": "reversion was prevented; also recorded: prevented the L1 Fc induced switching of Sema3A from repulsion to attraction"},
      {"measurement": "guidance index", "setting": "[1]", "result": "−1.6"}
    ]},
    {"molecule": "ASNKL (Description of the Artificial sequence Derived from the human amino-acid sequence of L1 Ig1 domain) [ASNKL120, five amino-acid peptide from L1 Ig1 domain]", "values": [
      {"measurement": "conversion of Sema3A-induced chemorepulsion into attraction by peptide", "setting": "[1]", "result": "successfully converted Sema3A-induced chemorepulsion into attraction"}
    ]},
    {"molecule": "FASNKLGTAM (Description of the Artificial sequence Derived from the human amino-acid sequence of L1 Ig1 domain) [ten amino-acid peptide from L1 Ig1 domain]", "values": [
      {"measurement": "conversion of Sema3A-induced chemorepulsion into attraction by peptide", "setting": "[1]", "result": "successfully converted Sema3A-induced chemorepulsion into attraction"}
    ]},
    {"molecule": "B1", "values": [
      {"measurement": "binding to NP-1 expressing cells", "setting": "[2]", "result": "bound NP-1 expressing cells"},
      {"measurement": "binding to wild-type L1 expressed in COS cells", "setting": "[3]", "result": "bound to wild-type L1"},
      {"measurement": "effect of mutation on homophilic binding", "setting": "[4]", "result": "affect homophilic"},
      {"measurement": "switching of Sema3A repulsion to attraction by L1Fc chimera", "setting": "[1]", "result": "able to reverse Sema3A repulsion to attraction; also recorded: efficiently induce switching of Sema3A repulsion to attraction"}
    ]},
    {"molecule": "B2", "values": [
      {"measurement": "binding to NP-1 expressing cells", "setting": "[2]", "result": "bound NP-1 expressing cells"},
      {"measurement": "effect of mutation on heterophilic binding", "setting": "[5]", "result": "affect"},
      {"measurement": "switching of Sema3A repulsion to attraction by L1Fc chimera", "setting": "[1]", "result": "able to reverse Sema3A repulsion to attraction; also recorded: efficiently induce switching of Sema3A repulsion to attraction; also recorded: switched Sema3A from repulsion to attraction to the same extent as wild type L1Fc"}
    ]},
    {"molecule": "B3", "values": [
      {"measurement": "binding to NP-1 expressing cells", "setting": "[2]", "result": "bound to NP-1 expressing cells"},
      {"measurement": "binding to wild-type L1 expressed in COS cells", "setting": "[3]", "result": "bound to wild-type L1"},
      {"measurement": "effect of mutation on heterophilic binding", "setting": "[5]", "result": "reduce"},
      {"measurement": "effect of mutation on homophilic binding", "setting": "[4]", "result": "reduce homophilic binding"},
      {"measurement": "switching of Sema3A repulsion to attraction by L1Fc chimera", "setting": "[1]", "result": "able to reverse Sema3A repulsion to attraction; also recorded: efficiently induce switching of Sema3A repulsion to attraction; also recorded: switched Sema3A from repulsion to attraction to the same extent as wild type L1Fc"}
    ]}
  ]
}
